These results are taken from patent US20090018134A1, “Compounds - 945” (AstraZeneca AB, priority 2007, published 2009).

T1 sequence (P42345 1362-2549): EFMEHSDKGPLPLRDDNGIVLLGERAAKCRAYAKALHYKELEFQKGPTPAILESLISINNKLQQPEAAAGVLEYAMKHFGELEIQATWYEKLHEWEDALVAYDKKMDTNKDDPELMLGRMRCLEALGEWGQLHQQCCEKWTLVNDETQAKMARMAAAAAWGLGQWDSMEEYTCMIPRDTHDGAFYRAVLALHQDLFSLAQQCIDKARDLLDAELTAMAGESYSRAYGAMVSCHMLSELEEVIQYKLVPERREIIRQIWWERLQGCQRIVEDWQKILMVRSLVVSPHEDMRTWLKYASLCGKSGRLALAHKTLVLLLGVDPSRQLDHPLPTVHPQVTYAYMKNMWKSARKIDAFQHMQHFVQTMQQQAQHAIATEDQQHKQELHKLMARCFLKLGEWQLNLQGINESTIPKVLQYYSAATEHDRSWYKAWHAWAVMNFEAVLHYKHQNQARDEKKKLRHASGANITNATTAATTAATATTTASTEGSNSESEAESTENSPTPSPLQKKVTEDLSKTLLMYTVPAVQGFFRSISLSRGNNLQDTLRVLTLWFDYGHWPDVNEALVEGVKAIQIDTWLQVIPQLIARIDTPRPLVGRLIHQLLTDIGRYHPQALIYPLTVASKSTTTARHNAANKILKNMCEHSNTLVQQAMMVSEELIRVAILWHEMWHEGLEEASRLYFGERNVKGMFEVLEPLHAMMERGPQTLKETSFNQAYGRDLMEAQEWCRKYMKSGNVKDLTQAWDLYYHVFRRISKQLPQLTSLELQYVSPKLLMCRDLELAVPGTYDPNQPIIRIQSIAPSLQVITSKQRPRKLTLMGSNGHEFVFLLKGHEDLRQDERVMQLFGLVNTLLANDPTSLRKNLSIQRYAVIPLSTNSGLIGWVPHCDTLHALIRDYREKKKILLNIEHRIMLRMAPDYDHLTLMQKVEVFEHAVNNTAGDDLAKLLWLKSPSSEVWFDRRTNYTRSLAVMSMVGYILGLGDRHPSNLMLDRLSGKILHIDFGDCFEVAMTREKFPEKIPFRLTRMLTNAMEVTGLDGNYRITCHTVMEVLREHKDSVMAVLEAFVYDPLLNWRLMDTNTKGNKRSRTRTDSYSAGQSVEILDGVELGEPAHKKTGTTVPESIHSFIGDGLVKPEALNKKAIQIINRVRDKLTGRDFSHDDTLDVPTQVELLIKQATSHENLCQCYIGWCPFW

One test addresses T1, mTOR (Homo sapiens, UniProt P42345).
T1 construct: FLAG; made in house
As to the kind of experiment: In Vitro mTOR Kinase Assay (Echo), Test (a)(ii). The class given is biochemical. The settings on record: read-out: mTOR Kinase Assay (Echo). Summed up: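 Compounds were acoustically dispensed, then incubated with FLAG-tagged mTOR (1362-2549) for 2 hours at room temperature. Reactions were quenched with EDTA plus detection antibody and AlphaScreen beads and left overnight in the dark before reading. Loss of phospho-T389 signal gave IC50 values.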
As for `C[C@H]1COCCN1c1cc(C2(S(C)(=O)=O)CC2)nc(-c2ccc(NC(=O)Nc3ccc(F)cn3)cc2)n1` [Example 2v, 3-(5-fluoropyridin-2-yl)-1-[4-[4-[(3S)-3-methylmorpholin-4-yl]-6-(1-methylsulfonylcyclopropyl)pyrimidin-2-yl]phenyl]urea], the IC50 is 8.66 nM.
As for `C[C@H]1COCCN1c1cc(C2(S(=O)(=O)c3ccc(F)cc3)CC2)nc(-c2ccc(NC(=O)Nc3cnn(C)c3)cc2)n1` [Example 8m, 1-[4-[4-[1-(4-fluorophenyl)sulfonylcyclopropyl]-6-[(3S)-3-methylmorpholin-4-yl]pyrimidin-2-yl]phenyl]-3-(1-methylpyrazol-4-yl)urea], the IC50 was determined as 1.36 nM.

The test is the same for the next values; noted with them: table of enzyme assay Test (a)(ii); read-out: Test (a)(ii) IC50.
For the compound `CCNC(=O)Nc1ccc(-c2nc(N3CCOC[C@@H]3C)cc(C3(S(=O)(=O)c4ccc(F)c(Cl)c4)CC3)n2)cc1` [Example 95f, 3-[4-[4-[1-(3-chloro-4-fluorophenyl)sulfonyl-cyclopropyl]-6-[(3S)-3-methylmorpholin-4-yl]pyrimidin-2-yl]phenyl]-1-ethylurea], the IC50 was determined as 10.9 nM.
Take `CNC(=O)Nc1ccc(-c2nc(N3CCOC[C@@H]3C)cc(C3(S(=O)(=O)CCCO)CCOCC3)n2)cc1` [Example 36ca, 1-[4-[4-[4-(3-hydroxypropylsulfonyl)oxan-4-yl]-6-[(3S)-3-methylmorpholin-4-yl]pyrimidin-2-yl]phenyl]-3-methylurea]: the IC50 was determined as 310 nM.
As for `C[C@H]1COCCN1c1cc(C2(S(=O)(=O)c3ccccc3F)CC2)nc(-c2ccc(NC(=O)NCCO)cc2)n1` [Example 58b, 1-[4-[4-[1-(2-fluorophenyl)sulfonylcyclopropyl]-6-[(3S)-3-methylmorpholin-4-yl]pyrimidin-2-yl]phenyl]-3-(2-hydroxyethyl)urea], the IC50 was found to be 2 nM.
Consider `C[C@H]1COCCN1c1cc(C2(S(=O)(=O)c3ccccc3Cl)CC2)nc(-c2ccc(NC(=O)Nc3cnn(C)c3)cc2)n1` [Example 76f, 1-[4-[4-[1-(2-chlorophenyl)sulfonylcyclopropyl]-6-[(3S)-3-methylmorpholin-4-yl]pyrimidin-2-yl]phenyl]-3-(1-methylpyrazol-4-yl)urea], for which the IC50 was 6.78 nM.
As to `C[C@H]1COCCN1c1cc(C2(S(=O)(=O)CCCO)CC2)nc(-c2ccc(NC(=S)Nc3cnn(C)c3)cc2)n1` [Example 37j, 1-[4-[4-[1-(3-hydroxypropylsulfonyl)cyclopro-pyl]-6-[(3S)-3-methylmorpholin-4-yl]pyrimidin-2-yl]phenyl]-3-(1-methylpyrazol-4-yl)thiourea], the IC50 is 30.9 nM.
Consider `C[C@H]1COCCN1c1cc(C2(S(=O)(=O)CCO)CC2)nc(-c2ccc(NC(=O)NC3(CO)CC3)cc2)n1` [Example 16i, 1-[4-[4-[1-(2-hydroxyethylsulfonyl)cyclopropyl]-6-[(3S)-3-methylmorpholin-4-yl]pyrimidin-2-yl]phenyl]-3-[1-(hydroxymethyl)cyclopropyl]urea], for which the IC50 turned out to be 845 nM.
`C[C@@H](CO)NC(=O)Nc1ccc(-c2nc(N3CCOC[C@@H]3C)cc(C3(S(=O)(=O)c4ccccc4)CC3)n2)cc1` [Example 36ec, 1-[4-[4-[1-(benzenesulfonyl)cyclopropyl]-6-[(3S)-3-methylmorpholin-4-yl]pyrimidin-2-yl]phenyl]-3-[(2S)-1-hydroxypropan-2-yl]urea]: the IC50 turned out to be 3.21 nM.
Take `C[C@H]1COCCN1c1cc(C2(S(=O)(=O)c3ccc(F)cc3)CC2)nc(-c2ccc(NC(=O)Nc3ncns3)cc2)n1` [Example 36z, 1-[4-[4-[1-(4-fluorophenyl)sulfonylcyclopropyl]-6-[(3S)-3-methylmorpholin-4-yl]pyrimidin-2-yl]phenyl]-3-(1,2,4-thiadiazol-5-yl)urea]: the IC50 is 2.08 nM.
Consider `CNC(=O)Nc1ccc(-c2nc(N3CCOC[C@@H]3C)cc(C3(S(=O)(=O)c4ccccc4Cl)CC3)n2)cc1` [Example 76a, 1-[4-[4-[1-(2-chlorophenyl)sulfonylcyclopropyl]-6-[(3S)-3-methylmorpholin-4-yl]pyrimidin-2-yl]phenyl]-3-methylurea], for which the IC50 turned out to be 4.07 nM.
The same measure, in the same setting: the figure for `Cc1ccc(F)cc1S(=O)(=O)C1(c2cc(N3CCOC[C@@H]3C)nc(-c3ccc(NC(=O)NCCO)cc3)n2)CC1` [Example 61b, 1-[4-[4-[1-(5-fluoro-2-methylphenyl)sulfonylcyclopropyl]-6-[(3S)-3-methylmorpholin-4-yl]pyrimidin-2-yl]phenyl]-3-(2-hydroxyethyl)urea] is 13.6 nM; for `CCNC(=O)Nc1ccc(-c2nc(N3CCOC[C@@H]3C)cc(C3(S(=O)(=O)c4c(C)nn(C(F)F)c4C)CC3)n2)cc1` [Example 75b, 3-[4-[4-[1-[1-(difluoromethyl)-3,5-dimethylpyrazol-4-yl]sulfonylcyclopropyl]-6-[(3S)-3-methylmorpholin-4-yl]pyrimidin-2-yl]phenyl]-1-ethylurea] it is 38.1 nM.
As for `CCNC(=O)Nc1ccc(-c2nc(N3[C@@H](C)COC[C@@H]3C)cc(C3(S(=O)(=O)c4ccccc4)CC3)n2)cc1` [Example 72, 1-[4-[4-[1-(Benzenesulfonyl)cyclopropyl]-6-[(3S,5S)-3,5-dimethylmorpholin-4-yl]pyrimidin-2-yl]phenyl]-3-ethylurea], the IC50 was found to be 4.32 nM.
For `C[C@H]1COCCN1c1cc(C2(S(C)(=O)=O)CCNCC2)nc(-c2ccc(NC(=O)NC3CC3)cc2)n1` [Example 20, 3-Cyclopropyl-1-[4-[4-[(3S)-3-methylmorpholin-4-yl]-6-(4-methylsulfonylpiperidin-4-yl)pyrimidin-2-yl]phenyl]urea], the IC50 turned out to be 12.8 nM.
With `Cc1cc(F)ccc1S(=O)(=O)C1(c2cc(N3CCOC[C@@H]3C)nc(-c3ccc(NC(=O)NCCF)cc3)n2)CC1` [Example 82c, 3-(2-fluoroethyl)-1-[4-[4-[1-(4-fluoro-2-methylphenyl)sulfonylcyclopropyl]-6-[(3S)-3-methylmorpholin-4-yl]pyrimidin-2-yl]phenyl]urea], the IC50 came out at 18.5 nM.
On to `CC[C@H]1COCCN1c1cc(C2(S(C)(=O)=O)CC2)nc(-c2ccc(NC(=O)NC3CC3)cc2)n1` [Example 84a, 3-cyclopropyl-1-[4-[4-[(3S)-3-ethylmorpholin-4-yl]-6-(1-methylsulfonylcyclopropyl)pyrimidin-2-yl]phenyl]urea], for which the IC50 came to 9.09 nM.
Still for that read-out and setting: the figure for `C[C@H]1COCCN1c1cc(C2(S(=O)(=O)c3ccccc3F)CC2)nc(-c2ccc(NC(=O)Nc3cnn(C)c3)cc2)n1` [Example 58f, 1-[4-[4-[1-(2-fluorophenyl)sulfonylcyclopropyl]-6-[(3S)-3-methylmorpholin-4-yl]pyrimidin-2-yl]phenyl]-3-(1-methylpyrazol-4-yl)urea] is 2.67 nM; for `Cc1nn(C)cc1S(=O)(=O)C1(c2cc(N3CCOC[C@@H]3C)nc(-c3ccc(NC(=O)NCCF)cc3)n2)CC1` [Example 55c, 1-[4-[4-[1-(1,3-dimethylpyrazol-4-yl)sulfonylcyclopropyl]-6-[(3S)-3-methylmorpholin-4-yl]pyrimidin-2-yl]phenyl]-3-(2-fluoroethyl)urea] it is 18.9 nM.
As for `CNC(=O)Nc1ccc(-c2nc(N3CCOCC3)cc(C3(C(=O)N(C)C4CC4)CC3)n2)cc1` [Example 32c, N-cyclopropyl-N-methyl-1-[2-[4-(methylcarbamoylamino)phenyl]-6-morpholin-4-ylpyrimidin-4-yl]cyclopropane-1-carboxamide], the IC50 came out at 2.88 nM.
